Each structure is given as a SMILES string. Values joined by “and” are separate entries in the source; they are usually repeats but may differ in a detail not shown here. Identical values can stand only once. Where a SMILES comes first, the peptide text is derived from it. The star is where a group is joined. Cbz = O=C(OCc1ccccc1)*

In general, IC50 refers to the midpoint of a concentration-inhibition curve. The low end stands for greater potency in that assay, the high end for weaker potency in that assay.

The test system of one assay is MDA-MB-134-VI. Put plainly: cells. The class given is functional, cell-based, Homo sapiens. The conditions noted are these: Homo sapiens, MDA-MB-134-VI.
Description: SANGER: Inhibition of human MDA-MB-134-VI cell growth in a cell viability assay.
For the compound `Nc1ccccc1NC(=O)c1ccc(CNC(=O)OCc2cccnc2)cc1` [ENTINOSTAT], the midpoint of inhibition, the IC50, lay at 1290 nM.
`CC(C)C[C@H](NC(=O)[C@H](Cc1ccccc1)NC(=O)c1cnccn1)B(O)O` [BORTEZOMIB] had a half-inhibitory concentration (IC50) greater than 20 nM.

The assay is the same for the next values; noted with them: mda-mb-134-vi.
In the case of `CC(C)C[C@@H](C=O)NC(=O)[C@H](CC(C)C)NC(=O)[C@H](CC(C)C)NC(=O)OCc1ccccc1` [MG-132] (Cbz-Leu-Leu-Leu-aldehyde), the IC50 was greater than 1000 nM.

A further assay relates to Raji. Put plainly: cells. It counts as functional, cell-based, Homo sapiens. The conditions noted are these: Homo sapiens, Raji.
Description: SANGER: Inhibition of human Raji cell growth in a cell viability assay.
The compound `Nc1ccccc1NC(=O)c1ccc(CNC(=O)OCc2cccnc2)cc1` [ENTINOSTAT] came in with an IC50 greater than 5000 nM.
Turning to `CC(C)C[C@@H](C=O)NC(=O)[C@H](CC(C)C)NC(=O)[C@H](CC(C)C)NC(=O)OCc1ccccc1` [MG-132] (Cbz-Leu-Leu-Leu-aldehyde), the IC50 was greater than 1000 nM.
`CC(C)C[C@H](NC(=O)[C@H](Cc1ccccc1)NC(=O)c1cnccn1)B(O)O` [BORTEZOMIB] showed a 50% inhibitory concentration (IC50) of 4.46 nM.

Still in this assay, the particulars now being: raji.
The compound `CC(C)C[C@@H](C=O)NC(=O)[C@H](CC(C)C)NC(=O)[C@H](CC(C)C)NC(=O)OCc1ccccc1` [MG-132] (Cbz-Leu-Leu-Leu-aldehyde) registered an IC50 greater than 1000 nM.

The subject of a further assay is NCI-H510A. Put plainly: cells. It counts as functional, cell-based, Homo sapiens. The following applies: Homo sapiens, NCI-H510A.
Description: SANGER: Inhibition of human NCI-H510A cell growth in a cell viability assay.
Consider `Nc1ccccc1NC(=O)c1ccc(CNC(=O)OCc2cccnc2)cc1` [ENTINOSTAT], for which the IC50 is 2050 nM.
The same measure, in the same setting: as for `CC(C)C[C@@H](C=O)NC(=O)[C@H](CC(C)C)NC(=O)[C@H](CC(C)C)NC(=O)OCc1ccccc1` [MG-132] (Cbz-Leu-Leu-Leu-aldehyde), the figure is greater than 1000 nM.
The compound `CC(C)C[C@H](NC(=O)[C@H](Cc1ccccc1)NC(=O)c1cnccn1)B(O)O` [BORTEZOMIB] came in with an IC50 greater than 20 nM.

The assay is the same for the next values; noted with them: nci-h510a.
For the compound `CC(C)C[C@@H](C=O)NC(=O)[C@H](CC(C)C)NC(=O)[C@H](CC(C)C)NC(=O)OCc1ccccc1` [MG-132] (Cbz-Leu-Leu-Leu-aldehyde), the IC50 was greater than 1000 nM.

The test system of the next assay is NCI-H524. Kind of assay: cells. It counts as functional, cell-based, Homo sapiens. The following applies: Homo sapiens, NCI-H524.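 Further: growth inhibition of human NCI-H524 cells, read out through a cell viability assay.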
Description: SANGER: Inhibition of human NCI-H524 cell growth in a cell viability assay.
The compound `Nc1ccccc1NC(=O)c1ccc(CNC(=O)OCc2cccnc2)cc1` [ENTINOSTAT] showed an IC50 of 554 nM.
Consider `CC(C)C[C@@H](C=O)NC(=O)[C@H](CC(C)C)NC(=O)[C@H](CC(C)C)NC(=O)OCc1ccccc1` [MG-132] (Cbz-Leu-Leu-Leu-aldehyde), for which the concentration for half-maximal inhibition (IC50) is greater than 1000 nM.
In the case of `CC(C)C[C@H](NC(=O)[C@H](Cc1ccccc1)NC(=O)c1cnccn1)B(O)O` [BORTEZOMIB], the IC50 is greater than 20 nM.

The assay is the same for the next values; noted with them: nci-h524.
With `CC(C)C[C@@H](C=O)NC(=O)[C@H](CC(C)C)NC(=O)[C@H](CC(C)C)NC(=O)OCc1ccccc1` [MG-132] (Cbz-Leu-Leu-Leu-aldehyde), the IC50 is greater than 1000 nM.

The test system of the next assay is COR-L279. Put plainly: SANGER: Inhibition of human COR-L279 cell growth in a cell viability assay. The class given is functional, cell-based. The following applies: Homo sapiens, COR-L279.
Regarding `Nc1ccccc1NC(=O)c1ccc(CNC(=O)OCc2cccnc2)cc1` [ENTINOSTAT], the IC50 was determined as 710 nM.
Compound `CC(C)C[C@H](NC(=O)[C@H](Cc1ccccc1)NC(=O)c1cnccn1)B(O)O` [BORTEZOMIB] had a half-inhibitory concentration (IC50) greater than 20 nM.

The same assay, now with this note: cor-l279.
With `CC(C)C[C@@H](C=O)NC(=O)[C@H](CC(C)C)NC(=O)[C@H](CC(C)C)NC(=O)OCc1ccccc1` [MG-132] (Cbz-Leu-Leu-Leu-aldehyde), the concentration for half-maximal inhibition (IC50) is greater than 1000 nM.

The next assay relates to IM-9. Kind of assay: SANGER: Inhibition of human IM-9 cell growth in a cell viability assay. The class given is functional, cell-based. The conditions noted are these: Homo sapiens, IM-9.
Consider `Nc1ccccc1NC(=O)c1ccc(CNC(=O)OCc2cccnc2)cc1` [ENTINOSTAT], for which the IC50 was greater than 5000 nM.
Same read-out and setting: in the case of `CC(C)C[C@H](NC(=O)[C@H](Cc1ccccc1)NC(=O)c1cnccn1)B(O)O` [BORTEZOMIB] it was greater than 20 nM.

The same assay, now with this note: im-9.
Regarding `CC(C)C[C@@H](C=O)NC(=O)[C@H](CC(C)C)NC(=O)[C@H](CC(C)C)NC(=O)OCc1ccccc1` [MG-132] (Cbz-Leu-Leu-Leu-aldehyde), the IC50 is greater than 1000 nM.

A further assay concerns SIMA. Put plainly: cells. The class given is functional, cell-based, Homo sapiens. The conditions noted are these: Homo sapiens, SIMA.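 Further: growth inhibition of SIMA cells, measured with a cell viability readout.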
Description: SANGER: Inhibition of human SIMA cell growth in a cell viability assay.
The compound `Nc1ccccc1NC(=O)c1ccc(CNC(=O)OCc2cccnc2)cc1` [ENTINOSTAT] displayed an IC50 greater than 5000 nM.
On the same count and under the same terms, as for `CC(C)C[C@H](NC(=O)[C@H](Cc1ccccc1)NC(=O)c1cnccn1)B(O)O` [BORTEZOMIB], the figure is greater than 20 nM.

Still in this assay, the particulars now being: sima.
The compound `CC(C)C[C@@H](C=O)NC(=O)[C@H](CC(C)C)NC(=O)[C@H](CC(C)C)NC(=O)OCc1ccccc1` [MG-132] (Cbz-Leu-Leu-Leu-aldehyde) yielded an IC50 greater than 1000 nM.

For another assay, the system named is SNU-16. Kind of assay: cells. The class given is functional, cell-based, Homo sapiens. The following applies: Homo sapiens, SNU-16.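 Further: growth inhibition of human SNU-16 cells, determined with a cell viability readout.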
Description: SANGER: Inhibition of human NCI-SNU-16 cell growth in a cell viability assay.
Compound `Nc1ccccc1NC(=O)c1ccc(CNC(=O)OCc2cccnc2)cc1` [ENTINOSTAT] came in with an IC50 greater than 5000 nM.
`CC(C)C[C@@H](C=O)NC(=O)[C@H](CC(C)C)NC(=O)[C@H](CC(C)C)NC(=O)OCc1ccccc1` [MG-132] (Cbz-Leu-Leu-Leu-aldehyde) showed an IC50 greater than 1000 nM.
In turn, `CC(C)C[C@H](NC(=O)[C@H](Cc1ccccc1)NC(=O)c1cnccn1)B(O)O` [BORTEZOMIB] yielded an IC50 of 7.65 nM.

Staying with this assay, now noted: snu-16.
In the case of `CC(C)C[C@@H](C=O)NC(=O)[C@H](CC(C)C)NC(=O)[C@H](CC(C)C)NC(=O)OCc1ccccc1` [MG-132] (Cbz-Leu-Leu-Leu-aldehyde), the 50% inhibitory concentration (IC50) was greater than 1000 nM.

In another assay the test system is CHP-126. Put plainly: cells. It counts as functional, cell-based, Homo sapiens. The following applies: Homo sapiens, CHP-126.
Description: SANGER: Inhibition of human CHP-126 cell growth in a cell viability assay.
In turn, `Nc1ccccc1NC(=O)c1ccc(CNC(=O)OCc2cccnc2)cc1` [ENTINOSTAT] showed an IC50 of 402 nM.
Compound `CC(C)C[C@H](NC(=O)[C@H](Cc1ccccc1)NC(=O)c1cnccn1)B(O)O` [BORTEZOMIB] yielded an IC50 of 5.06 nM.

The same assay, now with this note: chp-126.
`CC(C)C[C@@H](C=O)NC(=O)[C@H](CC(C)C)NC(=O)[C@H](CC(C)C)NC(=O)OCc1ccccc1` [MG-132] (Cbz-Leu-Leu-Leu-aldehyde) registered an IC50 greater than 1000 nM.

A further assay relates to CAL-148. Put plainly: cells. It counts as functional, cell-based, Homo sapiens. The following applies: Homo sapiens, CAL-148.
Description: SANGER: Inhibition of human CAL-148 cell growth in a cell viability assay.
`Nc1ccccc1NC(=O)c1ccc(CNC(=O)OCc2cccnc2)cc1` [ENTINOSTAT] had an IC50 of 1330 nM.
`CC(C)C[C@H](NC(=O)[C@H](Cc1ccccc1)NC(=O)c1cnccn1)B(O)O` [BORTEZOMIB] returned a half-maximal inhibitory concentration (IC50) greater than 20 nM.

The assay is the same for the next values; noted with them: cal-148.
In turn, `CC(C)C[C@@H](C=O)NC(=O)[C@H](CC(C)C)NC(=O)[C@H](CC(C)C)NC(=O)OCc1ccccc1` [MG-132] (Cbz-Leu-Leu-Leu-aldehyde) displayed an IC50 greater than 1000 nM.

The next assay deals with NCI-H2141. Kind of assay: cells. It counts as functional, cell-based, Homo sapiens. The conditions noted are these: Homo sapiens, NCI-H2141.
Description: SANGER: Inhibition of human NCI-H2141 cell growth in a cell viability assay.
For the compound `Nc1ccccc1NC(=O)c1ccc(CNC(=O)OCc2cccnc2)cc1` [ENTINOSTAT], 3170 nM corresponded to half-maximal inhibition (IC50).
On the same count and under the same terms, in the case of `CC(C)C[C@H](NC(=O)[C@H](Cc1ccccc1)NC(=O)c1cnccn1)B(O)O` [BORTEZOMIB] it was 4.05 nM.

The same assay, now with this note: nci-h2141.
The compound `CC(C)C[C@@H](C=O)NC(=O)[C@H](CC(C)C)NC(=O)[C@H](CC(C)C)NC(=O)OCc1ccccc1` [MG-132] (Cbz-Leu-Leu-Leu-aldehyde) yielded a 50% inhibitory concentration (IC50) greater than 1000 nM.

A further assay deals with NCI-H1882. Kind of assay: cells. The class given is functional, cell-based, Homo sapiens. The conditions noted are these: Homo sapiens, NCI-H1882.
Description: SANGER: Inhibition of human NCI-H1882 cell growth in a cell viability assay.
As for `Nc1ccccc1NC(=O)c1ccc(CNC(=O)OCc2cccnc2)cc1` [ENTINOSTAT], half-maximal inhibition (IC50) was put at 2680 nM.
In the case of `CC(C)C[C@H](NC(=O)[C@H](Cc1ccccc1)NC(=O)c1cnccn1)B(O)O` [BORTEZOMIB], the half-inhibitory concentration (IC50) came to 1.2 nM.

The assay is the same for the next values; noted with them: nci-h1882.
As to `CC(C)C[C@@H](C=O)NC(=O)[C@H](CC(C)C)NC(=O)[C@H](CC(C)C)NC(=O)OCc1ccccc1` [MG-132] (Cbz-Leu-Leu-Leu-aldehyde), the half-maximal inhibitory concentration (IC50) is 590 nM and > 1000 nM.

For the next assay, the system named is SCLC-21H. Kind of assay: cells. The class given is functional, cell-based, Homo sapiens. The conditions noted are these: Homo sapiens, SCLC-21H.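 Further: growth inhibition of cultured human SCLC-21H cells, read out with a cell viability assay.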
Description: SANGER: Inhibition of human SCLC-21H cell growth in a cell viability assay.
Regarding `Nc1ccccc1NC(=O)c1ccc(CNC(=O)OCc2cccnc2)cc1` [ENTINOSTAT], the IC50 is 1260 nM.
On the same count and under the same terms, as for `CC(C)C[C@H](NC(=O)[C@H](Cc1ccccc1)NC(=O)c1cnccn1)B(O)O` [BORTEZOMIB], the figure is greater than 20 nM.

The assay is the same for the next values; noted with them: sclc-21h.
With `CC(C)C[C@@H](C=O)NC(=O)[C@H](CC(C)C)NC(=O)[C@H](CC(C)C)NC(=O)OCc1ccccc1` [MG-132] (Cbz-Leu-Leu-Leu-aldehyde), the concentration for half-maximal inhibition (IC50) is greater than 1000 nM.

Another assay deals with NCI-H322M. Kind of assay: cells. It counts as functional, cell-based, Homo sapiens. The conditions noted are these: Homo sapiens, NCI-H322M.
Description: SANGER: Inhibition of human NCI-H322M cell growth in a cell viability assay.
Compound `Nc1ccccc1NC(=O)c1ccc(CNC(=O)OCc2cccnc2)cc1` [ENTINOSTAT] yielded an IC50 greater than 5000 nM.
Take `CC(C)C[C@H](NC(=O)[C@H](Cc1ccccc1)NC(=O)c1cnccn1)B(O)O` [BORTEZOMIB]: the half-inhibitory concentration (IC50) was greater than 20 nM.

The same assay, now with this note: nci-h322m.
For the compound `CC(C)C[C@@H](C=O)NC(=O)[C@H](CC(C)C)NC(=O)[C@H](CC(C)C)NC(=O)OCc1ccccc1` [MG-132] (Cbz-Leu-Leu-Leu-aldehyde), the half-inhibitory concentration (IC50) was greater than 1000 nM.

The subject of another assay is ARH-77. Put plainly: cells. The class given is functional, cell-based, Homo sapiens. The conditions noted are these: Homo sapiens, ARH-77.
Description: SANGER: Inhibition of human ARH-77 cell growth in a cell viability assay.
Regarding `Nc1ccccc1NC(=O)c1ccc(CNC(=O)OCc2cccnc2)cc1` [ENTINOSTAT], 382 nM corresponded to half-maximal inhibition (IC50).
Compound `CC(C)C[C@H](NC(=O)[C@H](Cc1ccccc1)NC(=O)c1cnccn1)B(O)O` [BORTEZOMIB] registered an IC50 of 2.38 nM.

The assay is the same for the next values; noted with them: arh-77.
`CC(C)C[C@@H](C=O)NC(=O)[C@H](CC(C)C)NC(=O)[C@H](CC(C)C)NC(=O)OCc1ccccc1` [MG-132] (Cbz-Leu-Leu-Leu-aldehyde) gave an IC50 greater than 1000 nM.

In a further assay the test system is Daudi. Put plainly: cells. The conditions noted are these: Homo sapiens, Daudi. The class given is functional, cell-based, Homo sapiens.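 Further: growth inhibition of Daudi cells, read out by a viability assay.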
Description: SANGER: Inhibition of human Daudi cell growth in a cell viability assay.
`Nc1ccccc1NC(=O)c1ccc(CNC(=O)OCc2cccnc2)cc1` [ENTINOSTAT] returned a half-maximal inhibitory concentration (IC50) of 777 nM.
`CC(C)C[C@H](NC(=O)[C@H](Cc1ccccc1)NC(=O)c1cnccn1)B(O)O` [BORTEZOMIB] had an IC50 of 1.22 nM.

The assay is the same for the next values; noted with them: daudi.
For `CC(C)C[C@@H](C=O)NC(=O)[C@H](CC(C)C)NC(=O)[C@H](CC(C)C)NC(=O)OCc1ccccc1` [MG-132] (Cbz-Leu-Leu-Leu-aldehyde), the half-inhibitory concentration (IC50) was greater than 1000 nM.

Source of the values: ChEMBL document CHEMBL1201861, “Genomics of Drug Sensitity in Cancer screening data, Wellcome Trust Sanger Institute”.
